Key:
Format in all cases: in vivo
[1] = system: 4-hydroxynonenal (4-HNE) in liver of C57BL/6J mice fed HFD; assay: Hepatic 4-HNE immunofluorescence (protein carbonyls) in DIO mouse NASH model; details: 130 days
Method: Liver samples from C57BL/6J mice fed chow and treated with vehicle, C57BL/6J mice fed HFD and treated with vehicle, and C57BL/6J mice fed HFD and treated with APL, as described in Example 1, were prepared and stained with an anti-4HNE antibody from Abcam (catalog #ab46545) for immunofluorescent analysis of the presence of 4-HNE. The APL dosage, administration frequency, and duration of treatment were as described in Example 1 (APL dosage administered to each animal was 200 milligrams per kilogram of body weight divided in two dosages per day, via oral gavage; treatment duration of 130 days; animals fed ad libitum). The data are depicted in FIG. 10. FIG. 10A are representative images of 4-HNE immunofluorescence liver sections from C57BL/6J mice fed chow and treated with vehicle, C57BL/6J mice fed HFD and treated with either vehicle or APL (TB-019) at 20× or 63× magnification. FIG. 10B is a plot of the 4-HNE immunofluorescence intensity per tissue area.

[2] = system: Zucker (fa/fa) obese rats; assay: Hepatic fibrosis: H&E and Mason trichrome liver histology in Zucker rat NASH model; details: 100 mg/kg APL p.o. b.i.d., 78 days
Source text: (§1) Zucker (fa/fa) obese rats and Zucker (Fa/fa) lean rats (7-week old male animals obtained from Charles Rivers Laboratories, Wilmington, MA, USA) were maintained in individual cages (1 rat per cage to encourage sedentary activity) and had free access to standard rodent chow (Cat #5053 obtained from Labdiet, Saint Louis, MO) and water for (filtered and packed using a Hydrapak system) for 7 days until the start of the experiment. Zucker (fa/fa) obese rats were randomly assigned to two groups: 1) vehicle p.o.b.i.d. (oral administration, twice a day) for 78 days; and 2) 100 milligram per kilogram (mg/kg) body weight APL (p.o.b.i.d.) for 78 days. Zucker (Fa/fa) lean rats served as control. The APL dosage was 100 mg/kg/day. Animals were fed ad libitum. The animals were humanely euthanized, and the livers were removed for histological analysis. Liver samples in formalin were allowed to fix for 48 hours, and processed into FFPE blocks after fixations. Slides were stained with hematoxylin and eosin (H&E) and Mason trichrome staining.

[3] = system: C57BL/6J mice fed high fat/high fructose diet (HFD); assay: NAFLD Activity Score (NAS) in HFD DIO mouse model of NASH; details: 130 days
Method: C57BL/6J mice were maintained in cages (5 mice per cage) and had free access to standard rodent chow (Cat #5053, obtained from Labdiet, Saint Louis, MO) and water (filtered and packed using a Hydrapak system) for 5 days until the start of the experiment. The animals were then randomly assigned to three groups (n=5 for each group receiving different diets and treatments as shown in Table B for 130 days. Each treatment was administered p.o.b.i.d. The APL dosage was 200 mg/kg body weight. “HFD” is high fat/high fructose diet, as described in Example 1 “Chow” refers to standard rodent chow, as described in Example 1. Animals were fed ad libitum.
At the conclusion of the test period, the animals were humanely euthanized, and the livers were removed for histological analysis. Liver samples in formalin were allowed to fix for 48 hours, and processed into FFPE blocks after fixations. Slides were stained with hematoxylin and eosin (H&E). FIG. 6A is the representation of multiple images of hematoxylin & eosin (H&E) staining of liver sections.
The liver samples were evaluated for liver fat (steatosis), inflammation, and hypertrophy in accordance the NAS scoring system. The NAS scoring is depicted in FIG. 6B. The NAS score for mice in the HFD/vehicle-treated mice is increased in all the pathological parameters, when compared with the CHOW/vehicle-treated mice: macrovesicular steatosis, microvesicular steatosis, hepatic hypertrophy and inflammatory foci. […] Thus, APL attenuates hepatic steatosis, inflammation and hypertrophy in the liver, each pathognomic of liver damage and NASH.

[4] = system: 4-hydroxynonenal (4-HNE) in liver of Zucker (fa/fa) obese rats; assay: Hepatic 4-HNE immunofluorescence (protein carbonyls) in rat NASH model
Source text: as §1
Liver samples from the Zucker rats in Example 4 were stained with an anti-4HNE antibody from Abcam (catalog #ab46545) for immunofluorescent analysis of the presence of 4-HNE. The data are depicted in FIG. 9. FIG. 9A are representative images of 4-HNE immunofluorescence liver sections from Zucker (Fa/fa) lean rats, Zucker (fa/fa) obese rats administered vehicle, and Zucker (fa/fa) obese rats administered vehicle administered APL. FIG. 9B is a plot of the 4HNE immunofluorescence intensity per tissue area, and FIG. 9C is a plot of total tissue area. […] Cytotoxic lipid by products such as 4-HNE are known to be elevated in human NASH livers as compared to healthy livers. See e.g., Serviddio et al., Uncoupling protein-2 (UCP2) induces mitochondrial proton leak and increases susceptibility of non-alcoholic steatohepatitis (NASH) liver to ischaemia-reperfusion injury. Gut. 2008 July; 57(7):957-65. doi: 10.1136/gut.2007.147496. Epub 2008 Feb. 28. The data implies that 4-HNE plays a crucial role in the pathogenesis of NASH.

[5] = Zucker obese rats, 100 mg/kg APL p.o. b.i.d., 78 days, ***p<0.001

**Q.** Which results are given for `NCCCNCCCC[C@H](N)C(=O)O` [APL, (S)-2-amino-6-((3-aminopropyl)amino)hexanoic acid]?
**A.** protein carbonyls in liver (4-HNE immunofluorescence intensity per tissue area), treated vs HFD vehicle ([1]; APL 200 mg/kg/day in two doses, oral gavage, ***p<0.001): reduced; 4-HNE immunofluorescence intensity per tissue area, treated vs negative control (chow vehicle) ([1]; APL 200 mg/kg/day): No statistical difference; liver morphology, H&E (FIG. 8A) [2]: preserve the normal morphology of the liver; liver collagen fibers, Mason trichrome blue staining (FIG. 8B/8C) ([2]; vs multiple collagen fibers with vehicle): minimum blue staining; NAS parameters: macrovesicular steatosis, microvesicular steatosis, hepatic hypertrophy, inflammatory foci (FIG. 6B) ([3]; APL 200 mg/kg p.o. b.i.d., vs HFD vehicle, ***p<0.001): statistically significant amelioration; lobular inflammation score, treated group vs negative control (FIG. 7B) ([3]; APL 200 mg/kg, ****p<0.0001): significant statistical difference; NAS component scores: steatosis, lobular inflammation, hepatic ballooning (FIG. 7B), treated vs positive control ([3]; APL 200 mg/kg/day divided into 2 doses, ****p<0.0001): significantly reduces; hepatic 4-HNE intensity / total tissue area, treated vs negative control ([4]; Zucker obese rats treated with APL vs lean control): No significant statistical difference; hepatic 4-HNE immunofluorescence intensity per tissue area, treated vs obese vehicle [4, 5]: significantly reduces; total liver tissue area (FIG. 9C), treated vs obese vehicle [4, 5]: maintains the total liver tissue area

Source: US12465582B2, “(S)-2-amino-6-((3-aminopropyl)amino)hexanoic acid (APL) for use in the treatment of non-alcoholic steatohepatitis (NASH), liver inflammation, hepatocellular ballooning, liver fibrosis and steatosis” (Temple University—Of The Commonwealth System Of Higher …, priority 2020, dated 2025)
